Where two headings read alike, the source gives them in different places. Where a SMILES comes first, the peptide text is derived from it. [ ]: non-standard residue; d: D form. pGlu = O=C1CC[C@@H](C(=O)O)N1
How the values were obtained:
[1] = human, plasma
Description: Store at −20° C. or on ice. • 2) Thaw the plasma and spin in a centrifuge at 1500×g for 10 minutes at room temperature. • 3) Prepare stock solution of the peptide at 10 mM in dimethyl sulfoxide (DMSO) or phosphate buffered saline (PBS) and dilute solutions by adding 3 μL of 10 mM stock to 297 μL DMSO or PBS (100 µM stock for a final 1 μM concentration). • 4) Add 550 μL plasma to an incubation tube and separately add 5 μL of peptide stock solution to an incubation tube. Warm the incubation tubes (5 minutes, 37° C., with shaking). • 5) After warming, add 495 μL of warmed plasma to warmed peptide (time=0). Mix well and shake the tube containing the mixed sample (37° C., 1500×g). • 6) At 2, 5, 15, 30, 45 and 60 minutes after contacting the peptide and plasma, collect 40 μL of the sample into pre-prepared quench tubes. • 7) Analyse the sample at each time point by mass spectrometry. Take all measurements in duplicate.
The samples were analysed and the T1/2 values were calculated by XenoGesis. The T1/2 values correspond to the time taken for the concentration of the peptide in the blood or plasma to be reduced by 50%.

[2] = system: PBLs on cytokine stimulated HDBECs
Description: Blood samples were obtained from consensual healthy donors and were collected in EDTA tubes (Sigma-Aldrich). […] 5 ml of blood was layered on top of the density gradient, and was centrifuged at 2500 rpm for 45 minutes. […] The PBMCs were washed twice for 7 minutes at 1500 rpm. Peripheral blood lymphocytes (PBLs) were isolated via panning PBMCs onto a culture flask for 30 minutes at 37° C., allowing monocytes to adhere.
HDBECS defrosted at 37° C. in a 25 cm^2 cell culture flask in 10 ml of media were dissociated using EDTA (Sigma-Aldrich) and Trypsin (Gibco) and seeded on 10 wells in a 12-well tissue culture plates (Falcon) and left to adhere at 37° C. After 24 hours, confluent endothelial layers were cytokine stimulated using 100 U/ml TNF-α (Sigma-Aldrich) and 10 ng/ml IFN-γ (Peprotech) for 24 hours at 37° C. The peptide treatment of the 1×10^6 cells/ml PBLs consisted of adding the peptides immediately before use. […] 1×10^6 PBLs were added to each well and incubated at 37° C., allowing PBLs to adhere to migrate across the endothelium. […] Cells were then fixed with 2% glutaraldehyde for 10 minutes and then imaged using phase-contrast microscopy via an inverted bright-field microscope at 20× magnification.
Imaging of the PBL migration assay was carried out using ImagePro 7 software (Media Cybernetics). Surface adherent cells were categorised as being phase-bright, and transmigrated cells were categorised as phase-dark with altered morphology, appearing as being under the endothelial layer. Images were taken at 5 different fields of each well, and an average of counted adherent and migrated PBLs was calculated.
The same methods described for the in vitro transmigration assay and analysis were used, and PBL transmigration was calculated as a percentage of adherent cells. Peptides were added to the PBLs at concentrations ranging from 0.0001-500 ng/ml on the cytokine stimulated HDBECs and the resulting PBL transmigration (as a percentage of adherent cells) was plotted as a function of log10 of the peptide concentration.
The peptides were added at concentration of 20 ng/ml and run alongside untreated PBL (PBL0) and scrambled protein to analyse their effects on adhesion and transmigration.

[3] = T1/2 in plasma (mouse); assay type: in vitro ADME; conditions: mouse, plasma; 1 μM peptide, 37° C.
Description: Take all measurements in duplicate.

C[C@H](NC(=O)CNC(=O)[C@@H]1CCC(=O)N1)C(=O)O [SEQ ID NO. 21, pEGA] ([pGlu]-Gly-Ala-OH)
half-life [1]: > 3 h | IC50 [2]: 0.12 nM | % Inhibition (3 nM) ([2]; 3 nM peptide, inhibition of PBL transmigration (as a percentage of adherent cells)): 41.20% | half-life [3]: > 3 h
